Values quoted from earlier work, collected in patent US20240041944A1, “OPTIMIZED INDIVIDUALIZED PREBIOTIC COMPOSITIONS” (ISOThrive LLC, priority 2016, published 2024).
Entries after “also recorded” stand apart in the source; their conditions may differ. Ends that are not written are not given here.

Columns and labels:
[1] = test system: Caenorhabditis elegans; conditions: incubation with rifamycin
[2] = test system: ascites tumors
[3] = test system: cancer cell lines
[4] = test system: Bacillus, Clostridium, Staphylococcus, Streptococcus, and Listeria spp.
[5] = can be autoclaved at 115° C.
[6] = test system: Salmonella spp.; conditions: co-administered with EDTA
[7] = test system: head/neck tumors; conditions: head and neck, mice

Molecule	Cancer Cell Type affected [3]	further results
CO[C@H]1/C=C/O[C@@]2(C)Oc3c(C)c(O)c4c(O)c(cc(O)c4c3C2=O)NC(=O)/C(C)=C\C=C\[C@H](C)[C@H](O)[C@@H](C)[C@@H](O)[C@@H](C)[C@H](OC(C)=O)[C@@H]1C [rifamycin]	–	increase of lifespan [1]: up to 60%; cytotoxicity [2]: cytotoxic
Bovicin HC5	MCF7 (breast cancer),; also recorded: HepG2 (liver cancer)	–
Nisin: lantibiotic bacteriocin produced by Lactococcus lactis, 34-residue peptide (SEQ ID NO:2) (ITSISLCTPGCKTGALMGCNMKTATCNCSIHVSK; cysteine pairing not given here; also: lanthionine modifications; listed as Lactococcus lactis)	MCF7 (breast cancer),; also recorded: HepG2 (liver cancer)	antimicrobial activity [4]: active; thermal stability [5]: thermally stable; activity against gram negative organisms [6]: effective; effect on tumorigenesis / tumors [7]: reduce tumorigenesis
Pyocin S2: class III bacteriocin produced by P. aeruginosa 42A (protein, UniProt Q06584 2-689, looked up) Pyocin-S2: AVNDYEPGSMVITHVQGGGRDIIQYIPARSSYGTPPFVPPGPSPYVGTGMQEYRKLRSTLDKSHSELKKNLKNETLKEVDELKSEAGLPGKAVSANDIRDEKSIVDALMDAKAKSLKAIEDRPANLYTASDFPQKSESMYQSQLLASRKFYGEFLDRHMSELAKAYSADIYKAQIAILKQTSQELENKARSLEAEAQRAAAEVEADYKARKANVEKKVQSELDQAGNALPQLTNPTPEQWLERATQLVTQAIANKKKLQTANNALIAKAPNALEKQKATYNADLLVDEIASLQARLDKLNAETARRKEIARQAAIRAANTYAMPANGSVVATAAGRGLIQVAQGAASLAQAISDAIAVLGRVLASAPSVMAVGFASLTYSSRTAEQWQDQTPDSVRYALGMDAAKLGLPPSVNLNAVAKASGTVDLPMRLTNEARGNTTTLSVVSTDGVSVPKAVPVRMAAYNATTGLYEVTVPSTTAEAPPLILTWTPASPPGNQNPSSTTPVVPKPVPVYEGATLTPVKATPETYPGVITLPEDLIIGFPADSGIKPIYVMFRDPRDVPGAATGKGQPVSGNWLGAASQGEGAPIPSQIADKLRGKTFKNWRDFREQFWIAVANDPELSKQFNPGSLAVMRDGGAPYVRESEQAGGRIKIEIHHKVRIADGGGVYNMGNLVAVTPKRHIEIHKGGK	HepG2 (liver cancer) and Im9	–
Colicin E1: class III bacteriocin produced by E. coli (protein, UniProt P02978 1-522, looked up) Colicin-E1: METAVAYYKDGVPYDDKGQVIITLLNGTPDGSGSGGGGGKGGSKSESSAAIHATAKWSTAQLKKTQAEQAARAKAAAEAQAKAKANRDALTQRLKDIVNEALRHNASRTPSATELAHANNAAMQAEDERLRLAKAEEKARKEAEAAEKAFQEAEQRRKEIEREKAETERQLKLAEAEEKRLAALSEEAKAVEIAQKKLSAAQSEVVKMDGEIKTLNSRLSSSIHARDAEMKTLAGKRNELAQASAKYKELDELVKKLSPRANDPLQNRPFFEATRRRVGAGKIREEKQKQVTASETRINRINADITQIQKAISQVSNNRNAGIARVHEAEENLKKAQNNLLNSQIKDAVDATVSFYQTLTEKYGEKYSKMAQELADKSKGKKIGNVNEALAAFEKYKDVLNKKFSKADRDAIFNALASVKYDDWAKHLDQFAKYLKITGHVSFGYDVVSDILKIKDTGDWKPLFLTLEKKAADAGVSYVVALLFSLLAGTTLGIWGIAIVTGILCSYIDKNKLNTINEVLGI	MCF7 (breast cancer),; also recorded: HS913T (fibrosarcoma)	–
Microcin E492: class IIa bacteriocin produced by K. pneumoniae (protein, UniProt Q9Z4N4 16-99, looked up) Microcin E492: GETDPNTQLLNDLGNNMAWGAALGAPGGLGSAALGAAGGALQTVGQGLIDHGPVNVPIPVLIGPSWNGSGSGYNSATSSSGSGS	HeLa (cervical cancer),; also recorded: Jurkat (leukemia); also recorded: RJ2.25	–
Colicin E3: class III bacteriocin produced by E. coli (protein, UniProt P00646 1-551, looked up) Colicin E3: MSGGDGRGHNTGAHSTSGNINGGPTGLGVGGGASDGSGWSSENNPWGGGSGSGIHWGGGSGHGNGGGNGNSGGGSGTGGNLSAVAAPVAFGFPALSTPGAGGLAVSISAGALSAAIADIMAALKGPFKFGLWGVALYGVLPSQIAKDDPNMMSKIVTSLPADDITESPVSSLPLDKATVNVNVRVVDDVKDERQNISVVSGVPMSVPVVDAKPTERPGVFTASIPGAPVLNISVNNSTPAVQTLSPGVTNNTDKDVRPAGFTQGGNTRDAVIRFPKDSGHNAVYVSVSDVLSPDQVKQRQDEENRRQQEWDATHPVEAAERNYERARAELNQANEDVARNQERQAKAVQVYNSRKSELDAANKTLADAIAEIKQFNRFAHDPMAGGHRMWQMAGLKAQRAQTDVNNKQAAFDAAAKEKSDADAALSSAMESRKKKEDKKRSAENNLNDEKNKPRKGFKDYGHDYHPAPKTENIKGLGDLKPGIPKTPKQNGGGKRKRWTGDKGRKIYEWDSQHGELEGYRASDGQHLGSFDPKTGNQLKGPDPKRNIKKYL	P388 (lymphoma) and HeLa	–
